According to publication PMC12655351, “Synthesis and Anticancer Activity Evaluation of New 5-((5-Nitrofuran-2-yl)allylidene)-2-thioxo-4-thiazolidinones” (Pharmaceuticals, 2025):

Tests used:
[1] = test system: MCF-7 cell line; experiment: Annexin V-FITC/propidium iodide flow cytometry; type: cell-based, human; conditions: 24 h
Description: The three chosen compounds, 2b, 12b, and 14b, were tested using Annexin V-FITC and propidium iodide to assess their effects on apoptosis induction on MCF-7 and MDA-MB-231 cell lines. To evaluate the population of cells, four states were determined: unstained cells (alive), cells stained with propidium iodide (necrotic), cells stained with FITC-labeled Annexin V (early apoptotic), and cells stained with both Annexin V and propidium iodide (late apoptotic). […] In a concentration of 5 μM the values were 8.5% and 12.2%, respectively. For 12b in a concentration equal to 1 μM, the obtained results showcased 7.2% of cells in early and late apoptosis and 0.7% in a state of necrosis. For 5 μM concentration results were 23.7% and 11.5%, respectively.
(§1) To conduct induction of apoptosis on MCF-7 and MDA-MB-231 cell lines, three compounds with the lowest IC50 values were selected (2b, 12b, 14b). The concentration of these compounds depended on the cell line. For MCF-7 cell line concentrations of 1 and 5 μM were used, while for MDA-MB-231 cell line concentrations were 5 and 10 μM. For both cell lines doxorubicin was used as a reference compound in 1 and 5 μM concentrations. This study was evaluated using a flow cytometer (BD FACSCanto II, Becton Dickinson Biosciences Systems, San Jose, CA, USA) and Annexin V binding Apoptosis Detection Kit II (BD Biosciences, San Diego, CA, USA). Cells were seeded in 6-well culture plates cultured in accordance with the previously described methodology. The medium was removed from wells and then cells were washed with PBS. A cell suspension was prepared in the binding buffer provided in the kit at a concentration of 1 × 10^6 cells/mL. A total of 100 µL of cell suspension was collected from each sample and transferred to the tubes. Afterwards, 5 µL of Annexin V-FITC and 4 µL of propidium iodide (PI) were added to each tube and then the tubes were incubated in the dark for 15 min at room temperature. After incubation, the suspension was supplemented to 300 µL with a binding buffer and immediately read in a BD FACSCanto II flow cytometer (Becton Dickinson Biosciences, San Jose, CA, USA), where 10,000 events per sample were measured. Results were analyzed using FACSDiva Software Version 6.1.3. (BD Biosciences Systems, San Jose, CA, USA).

[2] = test system: MDA-MB-231 cell line; experiment: Annexin V-FITC/propidium iodide flow cytometry; type: cell-based, human; conditions: 24 h
Description: Similarly to Figure 3, Figure 4 showcases the flow cytometric assessment of compounds effects on apoptosis induction on the MDA-MB-231 cell line after 24 h of incubation with tested structures. For this cell line, based on previous results, higher concentrations of tested compounds were chosen: 5 and 10 μM. […] At the same time, compound 12b showcased 7.3% of early and late apoptotic cells, 1.2% of necrotic cells in 5 μM concentration, and 13.8% and 22.3% in 10 μM concentration, consequently.
as §1

[3] = test system: COLO 205; experiment: cells; conditions: Homo sapiens, COLO 205, 48 h; for CC50: read-out: LC50, COLO 205, 48 h
[4] = test system: HCC-2998; experiment: cells; conditions: Homo sapiens, HCC 2998, 48 h
[5] = test system: MDA-MB-231/ATCC; experiment: cells; conditions: Homo sapiens, MDA-MB-231, 48 h; for GI50: MDA-MB-231/ATCC, 48 h; for CC50: read-out: LC50, MDA-MB-231/ATCC, 48 h
[6] = test system: NCI-H522; experiment: NCI-60 SRB screen; conditions: for GI50 / CC50: Homo sapiens; for GI50 / CC50 / TGI: NCI-H522, 48 h; for CC50: read-out: LC50, NCI-H522, 48 h
[7] = test system: EKVX; conditions: human, 48 h
[8] = test system: NCI-H266; conditions: human, 48 h
[9] = test system: NCI-H322M; conditions: human, 48 h
[10] = test system: SF-295; conditions: human, 48 h
[11] = test system: SNB-19; conditions: human, 48 h
[12] = test system: SNB-75; conditions: human, 48 h
[13] = test system: SK-MEL-2; conditions: human, 48 h
[14] = test system: ACHN; conditions: human, 48 h
[15] = test system: reactive oxygen species in MCF-7 cells; experiment: H2DCFDA and DAPI double staining; type: cell-based, human; conditions: MCF-7, 1 and 5 μM, one hour
Description: (§2) The double staining method was applied to analyze novel compounds’ effects on the generation of reactive oxygen species. The first dye, H2DCFDA, after conversion to DCF, serves as an indicator of oxidative stress (green fluorescence), while the second one, known as DAPI, was applied to showcase nuclear genetic material of MCF-7 and MDA-MB-231 breast cancer cells (blue fluorescence). The concentrations of compounds were 1 and 5 μM for the MCF-7 cell line and 5 and 10 μM for the MDA-MB-231 cell line. The incubation time after treatment was one hour in both cell lines.
(§3) The influences of 2b, 12b, 14b, and doxorubicin (1 and 5 µM and 5 and 10 µM for MCF-7 and MDA-MB-231 cell lines, respectively) on the generation of reactive oxygen species (ROS) were analyzed. Cells were seeded in 6-well culture plates at 1 × 10^5 cells per well in 1 mL of medium and then treated with compounds for 1 h and then washed with PBS. Double staining was conducted with 20 µM 2′,7′-dichlorodihydrofluorescein diacetate (H2DCFDA) reagent (Thermo Fisher Scientific, Eugene, OR, USA), which is colorless, and is cleaved by intracellular esterases and oxidized to the highly fluorescent 2′,7′-dichlorofluorescein (DCF), and 10 µg/mL of the fluorescent dye 4′,6-diamidino-2-phenylindole (DAPI) (Sigma-Aldrich, St. Louis, MO, USA), which visualizes the nuclear DNA of cells. A Nikon ECLIPSE Ti fluorescence microscope (Nikon, Tokyo, Japan) was used to obtain results which were analyzed using ImageJ software 1.54k (Bethesda, MD, USA). The fluorescence intensity of the DCF reagent was evaluated relative to the control. The number of analyzed cells was above 100.

[16] = test system: reactive oxygen species in MDA-MB-231 cells; experiment: H2DCFDA and DAPI double staining; type: cell-based, human; conditions: MDA-MB-231, 5 and 10 μM, one hour
Description: as §2, §3

[17] = test system: U251; conditions: human, 48 h

SMILES | cells in late and early apoptosis combined ([1]; MCF-7, 1 μM) [%] | necrotic cell population ([1]; MCF-7, 1 μM) [%] | cells in late and early apoptosis combined ([1]; MCF-7, 5 μM) [%] | necrotic cell population ([1]; MCF-7, 5 μM) [%] | combined apoptotic cells ([2]; MDA-MB-231, 5 μM) [%] | necrotic cells ([2]; MDA-MB-231, 5 μM) [%] | combined apoptotic cells ([2]; MDA-MB-231, 10 μM) [%] | necrotic cells ([2]; MDA-MB-231, 10 μM) [%] | GI50 [3] [µM] | CC50 [3] [µM] | GI50 [4] [µM] | GI50 [5] [µM] | CC50 [5] [µM] | GI50 [6] [µM] | CC50 [6] [µM] | TGI [6] [µM] | other results
CC(C(=O)O)N1C(=O)/C(=C/C=C/c2ccc([N+](=O)[O-])o2)SC1=S (stereo not drawn) [2b, 2-((Z)-5-((E)-3-(5-Nitrofuran-2-yl)allylidene)-4-oxo-2-thioxothiazolidin-3-yl)propanoic acid] | 7.7 | 0.7 | 8.5 | 12.2 | 7.8 | 6.6 | 7.5 | 44 |  |  |  |  |  |  |  |  | 
CCCC(C(=O)O)N1C(=O)/C(=C/C=C/c2ccc([N+](=O)[O-])o2)SC1=S (stereo not drawn) [4b, 2-((Z)-5-((E)-3-(5-Nitrofuran-2-yl)allylidene)-4-oxo-2-thioxothiazolidin-3-yl)pentanoic acid] |  |  |  |  |  |  |  |  | 1.95 | 6.66 | 1.83 | 2.21 | 8.33 | 1.7 | 6.48 | 3.32 | 
CC(C)C(C(=O)O)N1C(=O)/C(=C/C=C/c2ccc([N+](=O)[O-])o2)SC1=S (stereo not drawn) [5b, 3-Methyl-2-((Z)-5-((E)-3-(5-nitrofuran-2-yl)allylidene)-4-oxo-2-thioxothiazolidin-3-yl)butanoic acid] |  |  |  |  |  |  |  |  | 1.33 | 5.83 | 1.72 | 1.56 | 5.9 | 1.12 | 5.69 | 2.53 | 
CCCCC(C(=O)O)N1C(=O)/C(=C/C=C/c2ccc([N+](=O)[O-])o2)SC1=S (stereo not drawn) [6b, 2-((Z)-5-((E)-3-(5-nitrofuran-2-yl)allylidene)-4-oxo-2-thioxothiazolidin-3-yl)hexanoic acid] |  |  |  |  |  |  |  |  | 2.02 | 6.65 | 1.83 | 2.27 | 8.73 | 1.74 | 6.78 | 3.43 | 
O=C(O)C(c1ccccc1)N1C(=O)/C(=C/C=C/c2ccc([N+](=O)[O-])o2)SC1=S (stereo not drawn) [9b, 2-((Z)-5-((E)-3-(5-Nitrofuran-2-yl)allylidene)-4-oxo-2-thioxothiazolidin-3-yl)-2-phenylacetic acid] |  |  |  |  |  |  |  |  | 6.65 | 60.4 | 15.6 | 10.8 | 54.2 | 4.09 | 64.6 | 19.1 | growth GP ([6]; NCI-H522, 10 μM, 48 h): -88.21%
O=C(O)CCN1C(=O)/C(=C/C=C/c2ccc([N+](=O)[O-])o2)SC1=S [12b, 3-((Z)-5-((E)-3-(5-Nitrofuran-2-yl)allylidene)-4-oxo-2-thioxothiazolidin-3-yl)propanoic acid] | 7.2 | 0.7 | 23.7 | 11.5 | 7.3 | 1.2 | 13.8 | 22.3 |  |  |  | 1.7 | 6.15 | 1.1 | 5.52 | 2.46 | 
O=C(O)CCCN1C(=O)/C(=C/C=C/c2ccc([N+](=O)[O-])o2)SC1=S [13b, 4-((Z)-5-((E)-3-(5-Nitrofuran-2-yl)allylidene)-4-oxo-2-thioxothiazolidin-3-yl)butanoic acid] |  |  |  |  |  |  |  |  |  |  |  |  |  |  |  |  | CC50 [7]: 6.05 µM; CC50 [8]: > 100 µM; CC50 [9]: 22.8 µM; CC50 [10]: 5.08 µM; CC50 [11]: 5.5 µM; CC50 [12]: 5.49 µM; CC50 [13]: 4.2 µM; CC50 [14]: 3.72 µM
O=C(O)CCCCCN1C(=O)/C(=C/C=C/c2ccc([N+](=O)[O-])o2)SC1=S [14b, 6-((Z)-5-((E)-3-(5-nitrofuran-2-yl)allylidene)-4-oxo-2-thioxothiazolidin-3-yl)hexanoic acid] | 6.9 | 0.6 | 29.2 | 11.7 | 5.7 | 1.4 | 28.8 | 42.6 | 1.56 | 6.05 | 1.78 |  |  |  |  |  | generation of reactive oxygen species [15]: highest generation of ROS; generation of reactive oxygen species [16]: highest generation of ROS; CC50 [7]: 7.52 µM; CC50 [8]: 96.3 µM; CC50 [9]: 6.92 µM; CC50 [10]: 6.61 µM; CC50 [11]: 6.67 µM; CC50 [12]: 4.03 µM; CC50 [17]: 5.02 µM; CC50 [13]: 6.87 µM; CC50 [14]: 5 µM
